# Key:
# SARS-COV-2 [1] = details: in vivo; cited from earlier work
# SARS-COV-2 [2] = details: potentially physiological Tempol concentrations; cited from earlier work
# SARS-COV-2 [3] = assay: Treatment of a patient with presumptive Covid-19 (case report); assay type: in vivo, human
# Description: A septuagenarian person experienced sudden frightening onset of severe headache, marked nausea and vomiting, pharyngitis, severe upper respiratory congestion, fever, chills, myalgia, weakness, malaise, and mild to moderate pulmonary congestion. O2 saturation=96%. Patient had been taking Tempol off-and-on for years for cancer prophylaxis and for its possible antiaging activity, as well as some miscellaneous actions such as treatment of periodontitis and osteoarthritis. But, concerned that it would interfere with their activity, they had stopped Tempol about 6 weeks before receiving influenza (Fluvax) and Zoster (Zostavax) immunizations. The presumptive-diagnosis was “Covid-19”, possibly from a medically-related exposure.
# Treatment: Nausea and vomiting continued without respite for several hours. Anti-nausea tablets were twice regurgitated intact. Accordingly, treatment was initiated with 30 mg of Tempol PO as the hydroxylamine in a 6% water solution containing 90 mg vitamin-C. Patient kept this down. Along with Tempol-zinc gargles for pharyngitis, intranasal treatment was then initiated with a medication-soaked cotton swab and insufflation, repeated approximately q 6 h as symptoms returned. This was followed by similar doses of Tempol-H three and six hours later, repeated 2-3 times a day, PO for the next ten days. Subsequent intranasal treatment was also repeated 1-3 times a day for 10 days, as needed, titrating to relief of oropharyngeal symptoms as they recurred. On days 2-3, treatment was briefly initiated with hydroxychloroquine, zinc, doxycycline, ivermectin, and famotidine, then withdrawn.
# SARS-COV-2 [4] = assay: Person on Tempol heavily exposed to patient 1; assay type: in vivo, human; details: Tempol 60 mg/day
# Description: By days 5-7 remaining symptoms were mild reversible-on-treatment nasal congestion, pharyngitis, and malaise. […] PCR for SARS-COV-2 RNA was negative at day 10. While not surprising considering the clinical course, in retrospect, this may have signified some direct antiviral effect of the application of Tempol directly to the upper respiratory mucosa and oropharynx by insufflation, inhalation, or gargling. […] After patient discontinued treatment for several weeks, subsequent putative recurrent post-acute symptoms of Covid-19 such as malaise, myalgia, and shortness of breath appeared.
# [5] = molecular target: T1, SARS-COV-2 replicase (RNA-Dependent RNA polymerase) (Severe acute respiratory syndrome coronavirus 2, UniProt P0DTD1); details: by oxidizing iron-sulfur centers; cited from earlier work
# T1 construct: SARS-COV-2 replicase (RNA-Dependent RNA polymerase)
# [6] = system: nonrespiratory coronavirus; details: mouse, in vivo; cited from earlier work
smiles,measurement,setting,value
CCC(CC)COC(=O)[C@H](C)N[P@](=O)(OC[C@H]1O[C@@](C#N)(c2ccc3c(N)ncnn23)[C@H](O)[C@@H]1O)Oc1ccccc1 [Remdisivir],efficacy of systemic treatment of Covid-19,SARS-COV-2 [1],ineffective or only marginally-effective
"CC1(C)CC(O)CC(C)(C)N1[O] [Tempol, 4-hydroxy-TEMPO]",viral replication in vitro,SARS-COV-2 [2],markedly inhibits viral replication
same,PCR for SARS-COV-2 RNA,SARS-COV-2 [3]; day 10,negative
same,overall symptoms,"SARS-COV-2 [3]; days 8-9, excepting slight malaise",essentially asymptomatic
same,"recurrent post-acute symptoms of Covid-19 (malaise, myalgia, shortness of breath)",SARS-COV-2 [3]; further treatment as above plus lung inhalation of 0.1 ml of 6% Tempol or Tempol-H solution,responded reversibly
same,efficacy of Tempol itself (non-reduced form),SARS-COV-2 [3]; same doses as Tempol-H,effective at the same doses
same,development of coronavirus disease after heavy exposure,SARS-COV-2 [4],did not develop clinically-significant coronavirus disease
same,effect on replicase enzyme,[5],inactivates this key enzyme
same,murine viral encephalomyelitis,[6],ameliorates
CC1(C)CC(O)CC(C)(C)N1O [Tempol-H],pulmonary congestion,SARS-COV-2 [3]; after initiation of treatment,cleared somewhat
same,nasal congestion,SARS-COV-2 [3]; repeated intranasal treatment (soaked cotton swab and insufflation),quickly reversibly-eased
same,events experienced by the patient during treatment,SARS-COV-2 [3]; that night and several subsequent ones,“vivid dreaming”
same,headache,SARS-COV-2 [3]; within one to two hours of initiation of treatment,eased significantly
CCN(CCO)CCCC(C)Nc1ccnc2cc(Cl)ccc12 (centres unmarked) [hydroxychloroquine],efficacy of systemic treatment of Covid-19,SARS-COV-2 [1],ineffective or only marginally-effective

# Reference: patent publication US20210386722A1, “Treatment of Covid-19 with Nitroxides” (priority 2021, published 2021)
